In article PMC7827085 (Pharmaceutics, 2021):
Changes are numbered by the printed parent chain. pIC50: −log10 of the molar value.

Legend:
ABCB1/Pgp = target: T1, ABCB1/Pgp (Homo sapiens, UniProt P08183); assay: ABCB1-ATPase activity in Sf9 membrane vesicles; format: biochemical
T1 construct: made in house; host or cells: Sf9 insect cells
Experimental: ABC transporter ATPase activity was measured in Sf9 membrane vesicles containing the respective human ABC transporters. For ABCG2/BCRP, the cholesterol level in the vesicles was increased to the level of mammalian cell membranes for full activity. For ABCB1/Pgp 20 μg/150 μL and for ABCG2/BCRP 10 μg/150 μL, vesicles were incubated with 3 mM Mg-ATP for 25 min at 37 °C. The test drugs were dissolved in DMSO and 1 µL was added to the samples. The ABC transporter-related ATPase activity was determined and reference activators (50 µM verapamil for ABCB1 and 5 µM quercetin for ABCG2) served as controls.
Drug-stimulated ATPase activity of the ABCB1 transporter is a well-documented functional assay employed to estimate the substrate or inhibitory features of various drugs. […] In this assay, most transported substrates show a biphasic curve: Low concentrations stimulate, while higher concentrations inhibit, the ATPase activity. In these experiments, we measured the vanadate-sensitive (ABC transporter-related) ABCB1-ATPase activity in membrane vesicles isolated from ABCB1 overexpressing Sf9 cells.

wild-type ABCG2 = target: T2, wild-type ABCG2 (Homo sapiens, UniProt Q9UNQ0); assay: Hoechst 33342 dye extrusion in HeLa cells expressing wild-type ABCG2; format: cell-based; conditions: wild-type ABCG2, 0.2 µM Hoechst 33342, full inhibition by 1 µM Ko143
T2 construct: expressed in transfected cells; host or cells: HeLa (Sleeping Beauty transposon system)
T2 sequence (Q9UNQ0 1-655): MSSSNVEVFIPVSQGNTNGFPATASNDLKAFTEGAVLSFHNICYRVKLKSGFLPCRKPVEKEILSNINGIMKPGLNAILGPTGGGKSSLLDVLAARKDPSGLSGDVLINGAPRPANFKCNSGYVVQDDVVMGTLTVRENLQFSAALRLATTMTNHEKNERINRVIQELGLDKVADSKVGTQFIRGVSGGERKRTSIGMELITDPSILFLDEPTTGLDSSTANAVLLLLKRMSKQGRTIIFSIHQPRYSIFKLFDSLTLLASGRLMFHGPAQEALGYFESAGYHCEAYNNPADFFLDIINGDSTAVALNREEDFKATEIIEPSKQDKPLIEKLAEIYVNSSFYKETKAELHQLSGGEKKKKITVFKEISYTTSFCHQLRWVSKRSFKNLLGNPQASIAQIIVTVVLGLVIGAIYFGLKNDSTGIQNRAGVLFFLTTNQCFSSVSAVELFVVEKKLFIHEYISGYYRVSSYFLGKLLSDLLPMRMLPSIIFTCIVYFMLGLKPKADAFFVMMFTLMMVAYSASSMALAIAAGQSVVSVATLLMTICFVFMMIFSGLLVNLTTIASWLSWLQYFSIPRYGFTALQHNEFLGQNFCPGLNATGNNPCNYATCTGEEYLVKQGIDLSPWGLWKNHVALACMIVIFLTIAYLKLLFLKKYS

Q141K-ABCG2 variant = target: T3, Q141K-ABCG2 variant (Homo sapiens, UniProt Q9UNQ0, Q141K); assay: Hoechst 33342 dye extrusion in HeLa cells expressing Q141K-ABCG2; format: cell-based; conditions: Q141K-ABCG2 variant vs WT
T3 construct: expressed in transfected cells; host or cells: HeLa (Sleeping Beauty transposon system)
T3 sequence (Q9UNQ0 1-655 Q141K): T2 sequence (Q9UNQ0 1-655) with Q141K

ABCC1/MRP1 = ABCC1/MRP1 (Homo sapiens, UniProt P33527); assay: in vitro
Chain of ABCC1/MRP1 (P33527 whole entry): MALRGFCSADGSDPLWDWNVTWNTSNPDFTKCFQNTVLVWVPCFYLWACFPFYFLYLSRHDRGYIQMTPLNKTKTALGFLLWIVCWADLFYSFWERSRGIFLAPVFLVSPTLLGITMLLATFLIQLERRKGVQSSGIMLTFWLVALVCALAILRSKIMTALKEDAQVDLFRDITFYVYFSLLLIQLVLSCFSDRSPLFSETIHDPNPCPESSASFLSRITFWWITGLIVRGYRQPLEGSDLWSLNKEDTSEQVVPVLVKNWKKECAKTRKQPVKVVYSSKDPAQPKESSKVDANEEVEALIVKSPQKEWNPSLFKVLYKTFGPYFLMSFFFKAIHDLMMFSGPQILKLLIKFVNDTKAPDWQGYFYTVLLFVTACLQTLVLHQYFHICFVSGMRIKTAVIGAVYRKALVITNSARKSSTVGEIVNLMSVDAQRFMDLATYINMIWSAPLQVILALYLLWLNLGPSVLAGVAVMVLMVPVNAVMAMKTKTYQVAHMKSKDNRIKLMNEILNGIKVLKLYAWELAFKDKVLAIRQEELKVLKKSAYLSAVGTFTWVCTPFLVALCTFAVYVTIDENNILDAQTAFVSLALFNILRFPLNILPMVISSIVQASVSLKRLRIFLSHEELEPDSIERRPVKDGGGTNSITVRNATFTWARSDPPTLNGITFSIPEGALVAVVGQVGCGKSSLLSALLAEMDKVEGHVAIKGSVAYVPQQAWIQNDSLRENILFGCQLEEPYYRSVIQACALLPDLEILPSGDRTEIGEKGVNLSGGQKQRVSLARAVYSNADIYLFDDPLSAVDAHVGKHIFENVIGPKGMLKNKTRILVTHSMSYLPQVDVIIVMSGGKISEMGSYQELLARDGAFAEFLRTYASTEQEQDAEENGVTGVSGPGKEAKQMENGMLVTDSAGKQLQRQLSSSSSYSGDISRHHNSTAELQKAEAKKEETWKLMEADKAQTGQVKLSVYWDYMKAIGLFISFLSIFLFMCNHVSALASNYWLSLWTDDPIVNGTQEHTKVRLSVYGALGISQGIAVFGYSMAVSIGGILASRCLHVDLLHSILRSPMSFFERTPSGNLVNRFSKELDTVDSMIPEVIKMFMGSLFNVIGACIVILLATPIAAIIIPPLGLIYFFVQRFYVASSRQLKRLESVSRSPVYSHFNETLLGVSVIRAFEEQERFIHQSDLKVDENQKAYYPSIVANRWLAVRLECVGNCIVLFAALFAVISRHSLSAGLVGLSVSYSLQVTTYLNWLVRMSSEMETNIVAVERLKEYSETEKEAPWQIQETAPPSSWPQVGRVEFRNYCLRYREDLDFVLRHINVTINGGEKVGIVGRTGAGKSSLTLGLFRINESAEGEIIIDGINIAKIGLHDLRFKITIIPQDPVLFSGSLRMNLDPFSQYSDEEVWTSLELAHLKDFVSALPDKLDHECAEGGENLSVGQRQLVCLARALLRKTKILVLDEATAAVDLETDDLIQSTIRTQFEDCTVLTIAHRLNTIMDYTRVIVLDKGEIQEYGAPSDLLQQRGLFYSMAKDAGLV

OATP1A2 = target: T4, OATP1A2 (Homo sapiens, UniProt P46721); assay: cell-based
T4 sequence (P46721 1-670): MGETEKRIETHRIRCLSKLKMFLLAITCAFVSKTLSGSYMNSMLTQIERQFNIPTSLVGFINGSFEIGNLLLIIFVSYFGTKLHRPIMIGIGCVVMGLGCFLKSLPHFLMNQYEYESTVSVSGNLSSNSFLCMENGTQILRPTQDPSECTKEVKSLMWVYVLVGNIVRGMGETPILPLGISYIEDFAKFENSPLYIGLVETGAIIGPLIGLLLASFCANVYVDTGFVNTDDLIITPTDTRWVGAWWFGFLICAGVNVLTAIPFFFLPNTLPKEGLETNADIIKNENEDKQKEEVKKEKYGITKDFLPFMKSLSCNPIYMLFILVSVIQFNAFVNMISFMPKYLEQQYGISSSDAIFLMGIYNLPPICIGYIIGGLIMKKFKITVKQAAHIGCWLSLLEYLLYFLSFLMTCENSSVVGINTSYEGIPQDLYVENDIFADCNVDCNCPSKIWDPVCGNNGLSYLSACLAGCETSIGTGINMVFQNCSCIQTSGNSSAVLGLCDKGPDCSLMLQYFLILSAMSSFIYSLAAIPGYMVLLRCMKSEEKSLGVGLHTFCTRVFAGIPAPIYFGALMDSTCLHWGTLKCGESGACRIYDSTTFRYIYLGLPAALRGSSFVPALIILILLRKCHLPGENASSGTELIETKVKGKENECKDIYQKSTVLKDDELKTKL

OATP2B1 = target: T5, OATP2B1 (Homo sapiens, UniProt O94956); assay: cell-based
T5 sequence (O94956 1-709): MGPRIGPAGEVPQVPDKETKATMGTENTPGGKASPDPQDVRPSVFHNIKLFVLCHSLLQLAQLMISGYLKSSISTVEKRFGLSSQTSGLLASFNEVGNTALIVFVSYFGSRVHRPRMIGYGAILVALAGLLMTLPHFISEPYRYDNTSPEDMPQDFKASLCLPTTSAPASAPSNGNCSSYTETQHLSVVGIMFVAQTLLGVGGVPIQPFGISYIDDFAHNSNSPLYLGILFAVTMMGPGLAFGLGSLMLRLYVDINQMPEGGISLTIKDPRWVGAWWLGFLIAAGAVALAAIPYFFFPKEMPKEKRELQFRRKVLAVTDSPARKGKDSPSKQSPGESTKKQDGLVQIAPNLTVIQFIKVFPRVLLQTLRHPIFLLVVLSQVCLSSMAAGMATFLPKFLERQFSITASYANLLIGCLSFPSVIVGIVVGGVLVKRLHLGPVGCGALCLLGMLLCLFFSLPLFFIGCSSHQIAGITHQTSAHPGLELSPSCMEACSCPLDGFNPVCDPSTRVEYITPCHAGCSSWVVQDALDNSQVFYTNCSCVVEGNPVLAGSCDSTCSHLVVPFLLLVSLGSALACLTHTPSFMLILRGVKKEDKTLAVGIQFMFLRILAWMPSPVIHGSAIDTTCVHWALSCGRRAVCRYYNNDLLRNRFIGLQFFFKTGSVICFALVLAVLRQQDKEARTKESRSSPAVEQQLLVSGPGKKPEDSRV

ABCG2/BCRP = target: T6, ABCG2/BCRP (Homo sapiens, UniProt Q9UNQ0); assay: ABCG2-ATPase activity in Sf9 membrane vesicles; format: biochemical; parameters: expressed in transfected cells; host or cells: PLB-985; conditions: Sf9/ABCG2 membranes; ivermectin, ritonavir, lopinavir at low micromolar, remdesivir at higher concentrations
T6 sequence (Q9UNQ0 1-655): T2 sequence (Q9UNQ0 1-655)
Experimental: ABC transporter ATPase activity was measured in Sf9 membrane vesicles containing the respective human ABC transporters [46, 47, 48, 49, 50]. For ABCG2/BCRP, the cholesterol level in the vesicles was increased to the level of mammalian cell membranes for full activity [49]. For ABCB1/Pgp 20 μg/150 μL and for ABCG2/BCRP 10 μg/150 μL, vesicles were incubated with 3 mM Mg-ATP for 25 min at 37 °C. The test drugs were dissolved in DMSO and 1 µL was added to the samples. The ABC transporter-related ATPase activity was determined and reference activators (50 µM verapamil for ABCB1 and 5 µM quercetin for ABCG2) served as controls.
Drug-stimulated ATPase activity of the ABCG2 transporter was also measured in the present study.

T1 sequence (P08183 whole entry): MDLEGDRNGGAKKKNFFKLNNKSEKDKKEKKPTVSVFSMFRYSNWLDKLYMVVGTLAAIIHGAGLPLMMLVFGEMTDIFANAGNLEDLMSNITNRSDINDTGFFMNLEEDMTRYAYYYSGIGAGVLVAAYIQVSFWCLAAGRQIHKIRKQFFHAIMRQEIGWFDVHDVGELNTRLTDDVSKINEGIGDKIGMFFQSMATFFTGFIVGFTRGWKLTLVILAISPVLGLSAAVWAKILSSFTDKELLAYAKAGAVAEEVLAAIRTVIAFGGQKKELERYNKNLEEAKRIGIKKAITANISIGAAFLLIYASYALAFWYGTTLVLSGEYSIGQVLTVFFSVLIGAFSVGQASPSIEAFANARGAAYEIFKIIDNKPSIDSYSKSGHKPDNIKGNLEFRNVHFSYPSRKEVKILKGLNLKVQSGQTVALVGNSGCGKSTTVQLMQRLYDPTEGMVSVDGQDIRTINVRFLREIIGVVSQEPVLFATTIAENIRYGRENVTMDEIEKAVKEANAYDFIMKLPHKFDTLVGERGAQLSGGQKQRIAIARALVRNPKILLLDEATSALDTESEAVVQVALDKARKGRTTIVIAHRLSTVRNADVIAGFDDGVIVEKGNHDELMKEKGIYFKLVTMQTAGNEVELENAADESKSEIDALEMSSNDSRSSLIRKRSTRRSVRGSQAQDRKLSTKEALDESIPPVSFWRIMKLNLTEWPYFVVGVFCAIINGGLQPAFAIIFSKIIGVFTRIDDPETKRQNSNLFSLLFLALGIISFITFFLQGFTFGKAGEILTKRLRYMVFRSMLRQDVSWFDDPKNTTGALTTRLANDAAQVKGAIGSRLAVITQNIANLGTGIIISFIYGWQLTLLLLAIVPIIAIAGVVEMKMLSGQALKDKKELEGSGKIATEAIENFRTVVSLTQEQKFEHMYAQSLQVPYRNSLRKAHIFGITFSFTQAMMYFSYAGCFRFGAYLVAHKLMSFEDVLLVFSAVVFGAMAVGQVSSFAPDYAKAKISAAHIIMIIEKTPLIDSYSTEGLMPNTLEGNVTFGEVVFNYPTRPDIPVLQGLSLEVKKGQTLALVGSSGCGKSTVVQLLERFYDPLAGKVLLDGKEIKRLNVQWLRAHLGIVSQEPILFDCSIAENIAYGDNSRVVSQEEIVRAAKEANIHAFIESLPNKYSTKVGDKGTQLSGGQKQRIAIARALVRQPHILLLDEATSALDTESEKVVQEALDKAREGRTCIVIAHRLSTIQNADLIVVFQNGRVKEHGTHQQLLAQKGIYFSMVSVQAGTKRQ

**Q.** For Cc1cccc(C)c1OCC(=O)N[C@@H](Cc1ccccc1)[C@@H](O)C[C@H](Cc1ccccc1)NC(=O)[C@H](C(C)C)N1CCCNC1=O [lopinavir], which “Concentration of maximal ABCB1-ATPase stimulation” value (ABCB1/Pgp; Sf9/ABCB1 membranes) is on record?
**A.** around 0.5 µM

**Q.** What about the “Effect on ABCB1-ATPase activity (in words)” value (ABCB1/Pgp; Sf9/ABCB1 membranes, 50 µM verapamil as reference activator) of the same compound?
**A.** significant ABCB1-ATPase stimulation

**Q.** And the “Effect on ABCB1-ATPase activity at higher concentrations (in words)” value (ABCB1/Pgp; at higher concentrations)?
**A.** inhibitory effects

**Q.** And the “Effect on Hst dye extrusion by ABCG2 in HeLa cells (in words)” value (wild-type ABCG2)?
**A.** inhibited

**Q.** What about the “Inhibition of Hst dye extrusion in Q141K-ABCG2 HeLa cells compared with wild type (in words)” value (Q141K-ABCG2 variant) of the same compound?
**A.** significantly stronger inhibition

**Q.** What about the inhibition at 3 min (ABCC1/MRP1) of the same compound?
**A.** 60%

**Q.** And the pIC50 (OATP1A2)?
**A.** 5.82

**Q.** What about the pIC50 (OATP2B1) of the same compound?
**A.** 6.00

**Q.** What about the “Effect on baseline ABCG2-ATPase activity (in words)” value (ABCG2/BCRP) of the same compound?
**A.** significantly inhibited
